# Test results from US20080045609A1, “METHODS AND THERAPEUTICS TO FACILITATE LIVER REPAIR” (priority 2006, published 2008).
# Assays:
# NASH = test: clinical trial in patients with moderately severe NASH; type: in vivo, human; settings: subcutaneous delivery, monotherapy
# Experimental: The dosage and delivery mechanism for relaxin H2 is subcutaneous delivery of the molecule based on the earlier reports for the scleroderma trial. […] The dosage of relaxin H2 in the present trial is the most efficacious level that was used in the earlier reported scleroderma trial, a subcutaneous relaxin infusion rate of 25 μg/kg/day, with the mode of delivery via continuous subcutaneous delivery (e.g., through implantation of an osmotic pump). The simultaneous dosage of follistatin will be 50 μg/kg/day through subcutaneous delivery.
# A formulation comprised of rH2 relaxin and recombinant human follistatin 315 is used to improve prognosis and decrease on-going damage caused from on-going hepatic damage in patients diagnosed with moderately severe NASH. The measured end points are indicative of a decrease of reduction of area of damage in the liver and increased liver enzyme function. […]
# rH2 relaxin and follistatin administration are studied in a small patient population of NASH and an improvement in liver enzyme levels and liver function is measured as a primary end point. A decrease in on-going damage as determined by imaging techniques is also measured. […] In addition, elements such as diet and exercise are carefully monitored in the trial populations as these may impact on the improvement of the underlying metabolic disorder and potentially skew the results.
# CCl4-exposed rats = settings: cited from earlier work
# liver = settings: cited from earlier work
# tumor cell = settings: in vitro or in vivo studies; cited from earlier work
# HSC = settings: cited from earlier work
# [1] = tested on: progressive pulmonary fibrosis; settings: patients with idiopathic pulmonary fibrosis, scleroderma or sarcoidosis resistant to three months of high-dose glucocorticoids; cited from earlier work
# gene for TGF-β1 = settings: bleomycin-induced model of lung fibrosis, exogenous interferon-γ; cited from earlier work
# lung fibroblasts = settings: in vitro; cited from earlier work
# [2] = human, in vivo; cited from earlier work
# [3] = tested on: hepatic stellate cells (HSCs); settings: rat CCl4 model of liver damage; cited from earlier work
# [4] = tested on: rat model of hypertension; settings: cited from earlier work
substance,measurement,setting,value
follistatin,"improvement versus vehicle (liver enzyme levels, liver function)",NASH,significant improvement over those treated with vehicle
same,reduction in fibrosis,CCl4-exposed rats; CCl4-exposed rats treated with the peptide,32%
same,decrease of hepatocyte apoptosis,"CCl4-exposed rats; CCl4-exposed rats, during treatment, effect maximal at week 4",87%
same,liver weight,liver; after hepatic resection,significantly increases liver weight
same,cell replication and liver size,liver; following partial hepatectomy,actively promote cell replication and increase liver size
same,tumor cell growth,tumor cell,did not accelerate tumor cell growth
same,TGF-β-induced secretion of collagen,HSC,inhibit TGF-β-induced secretion of collagen from HSC
interferon γ-1b,clinical efficacy in progressive pulmonary fibrosis,[1],effective
interferon-γ,transcription of the gene for TGF-β1,gene for TGF-β1,down-regulated
same,proliferation of lung fibroblasts,lung fibroblasts,inhibits the proliferation of lung fibroblasts in a dose-dependent manner
same,synthesis of protein in fibroblasts,lung fibroblasts,reduces the synthesis of protein in fibroblasts
relaxin,adverse events,[2],few adverse events
same,"improvement versus vehicle (liver enzyme levels, liver function)",NASH,significant improvement over those treated with vehicle
same,collagen deposition by hepatic stellate cells,[3],inhibit collagen deposition by hepatic stellate cells
same,fibrosis associated with organ damage,[4],reversing cardiac and renal fibrosis
